Data as given in US11708366B2, “Heteroaryl substituted spiropiperidinyl derivatives and pharmaceutical uses thereof” (Novartis AG, priority 2020, dated 2023).
Read-outs that look alike come from different tables or passages of the source.

Target: LTC4S (Homo sapiens (Human), UniProt Q16873)
Experiment: Human whole blood HTRF assay (LTC4 release after calcium ionophore A23187)
Assay type: cell-based
Conditions: calcium ionophore A23187 stimulation, LTC4 by HTRF
Procedure: B. Human Whole Blood HTRF Assay
LTC4 synthase catalyzes the conversion of Leukotriene A4 (LTA4) to Leukotriene C4 (LTC4) in the presence of reduced glutathione (GSH) as a co-substrate. For testing the inhibition of LTC4S, compounds are prepared for either eight-point or sixteen-point dose response studies in 384-well Labcyte low dead volume (LDV) plates. For eight-point dose response studies, compounds are diluted 1:5 starting at 1 μM concentration in 90% DMSO. […] Compounds are studied in duplicates. Ten wells are filled with 90% DMSO which correspond to the stimulated and unstimulated control wells. […] The morning of the assay, whole blood is collected from three human donors. Donors must be non-smokers and must not have taken NSAIDs within the 48 hours prior to blood collection. The amount of blood collected per donor depends on the amount of compounds to be tested and the dose response format in which they are to be studied (about 8 mL of whole blood for either 22 compounds in 8-point dose response format or 11 compounds in 16-point dose response format). […] 50 μL of diluted blood are then dispensed into each assay plate well with pre-dispensed compounds and DMSO for the stimulated and unstimulated controls using a Thermo Scientific™ Multidrop™ Combi reagent dispenser, and incubated at 37° C. for 4 hours. Calcium ionophore A23187 is used to induce a rapid increase in intracellular levels of Ca^2+. The Ca^2+ functions as a universal second messenger in various immune cells, such as T cells, B cells and mast cells, and is used to induce degranulation and release of eicosanoids, including LTC4, by cells contained in the whole blood samples. […] All but the unstimulated control wells are subsequently stimulated by dispensing 1 μL of the 0.5 mg/mL calcium ionophore suspension using the Thermo Scientific™ Multidrop™ Combi reagent dispenser. Plates are incubated for 15 minutes at 37° C. Plates are then centrifuged at 300 g for 10 minutes at room temperature to pellet blood cells and stop the reaction. […] Plates are sealed and stored at −80° C.
In order to measure the amount of LTC4 released by cells in the human blood samples during calcium ionophore stimulation, supernatants are analyzed using the Cisbio LTC4 homogeneous time-resolved FRET (HTRF) kit (Cisbio #64LC4PEH). […] Ten serially diluted standard curve solutions are also dispensed in duplicate into each plate as instructed in the protocol. Blank controls and cryptate control wells are also prepared. Then, 5 μL of anti-LTC4-d2 working solution are dispensed into all the wells, but the cryptate control wells. Subsequently, 5 μL of anti-LTC4-Eu3+ cryptate working solution are dispensed into all the wells. Plates are then covered with a lid and incubated at room temperature for one hour with gentle orbital shaking (˜450 rpm). […] HTRF ratios are calculated for each well by dividing the 665 nm intensity by the 620 nm intensity, and multiplying the resulting ratio by 10,000. LTC4 standard curves are interpolated for each plate and used to convert the HTRF ratio readouts into the amount of LTC4 present in each well (in ng/mL). Parametric curve fitting is used to obtain inhibition curves and IC50 values.

[1] = human whole blood diluted 1:3, 4 h incubation, read-out: human whole blood HTRF IC50

Compound	IC50 [1]	IC50 (human whole blood HTRF IC50, human whole blood diluted 1:3, 4 h incubation)
Nc1nc(N2CCC3(CCCC(=O)N3c3ccc(F)c(F)c3)CC2)nc(-n2cc(F)cn2)n1 [Example 60, 9-(4-amino-6-(4-fluoro-1H-pyrazol-1-yl)-1,3,5-triazin-2-yl)-1-(3,4-difllorophenyl)-1,9-diazaspiro[5.5]undecan-2-one]	680 nM	–
(R)-9-(2-amino-6-((1,1,1-trifluoropropan-2-yl)oxy)pyrimidin-4-yl)-1-(3,4-difluorophenyl)-3-oxa-1,9-diazaspiro[5.5]undecan-2-one, or (S)-9-(2-amino-6-((1,1,1-trifluoropropan-2-yl)oxy)pyrimidin-4-yl)-1-(3,4-difluorophenyl)-3-oxa-1,9-diazaspiro[5.5]undecan-2-one [Example 113a]	15 nM	–
CC(C)(O)c1nc(N2CCC3(CCCC(=O)N3c3ccc(F)c(F)c3)CC2)cc(C(F)(F)F)n1 [Example 80, 1-(3,4-difluorophenyl)-9-(2-(2-hydroxypropan-2-yl)-6-(trifluoromethyl)pyrimidin-4-yl)-1,9-diazaspiro[5.5]undecan-2-one]	24 nM	–
O=C1CCCC2(CCN(c3cc(-n4cc(C(F)(F)F)cn4)nc(Cl)n3)CC2)N1c1ccc(F)c(F)c1 [Example 69, 9-(2-chloro-6-(4-(trifluoromethyl)-1H-pyrazol-1-yl)pyrimidin-4-yl)-1-(3,4-difluorophenyl)-1,9-diazaspiro[5.5]undecan-2-one]	35 nM	–
O=C1CCCC2(CCN(c3cc(-n4cc(F)cn4)ncn3)CC2)N1c1ccc(F)c(F)c1 [Example 56, 9-(6-(4-fluoro-1H-pyrazol-1-yl)pyrimidin-4-yl)-1-(3,4-difluorophenyl)-1,9-diazaspiro[5.5]undecan-2-one]	17 nM	–
Nc1nc(OC2CCOCC2)cc(N2CCC3(CC2)C[C@H](F)CC(=O)N3c2ccc(F)c(F)c2)n1 (single isomer, unassigned) [Example 116b, (S)-9-(2-amino-6-((tetrahydro-2H-pyran-4-yl)oxy)pyrimidin-4-yl)-1-(3,4-difluorophenyl)-4-fluoro-1,9-diazaspiro[5.5]undecan-2-one, or (R)-9-(2-amino-6-((tetrahydro-2H-pyran-4-yl)oxy)pyrimidin-4-yl)-1-(3,4-difluorophenyl)-4-fluoro-1,9-diazaspiro[5.5]undecan-2-one]	33 nM	–
Cn1nc(-n2cc(C(F)(F)F)cn2)cc(N2CCC3(CCCC(=O)N3c3ccc(F)c(F)c3)CC2)c1=O [Example 14, 1-(3,4-difluorophenyl)-9-(2-methyl-3-oxo-6-(4-(trifluoromethyl)-1H-pyrazol-1-yl)-2,3-dihydropyridazin-4-yl)-1,9-diazaspiro[5.5]undecane-2-one]	–	1 nM
Nc1nc(N2CCC3(CC2)CC(F)CC(=O)N3c2ccc(F)c(F)c2)cc(C(F)(F)C(F)(F)F)n1 (racemic) [Example 117, rac-9-(2-amino-6-(perfluoroethyl)pyrimidin-4-yl)-1-(3,4-difluorophenyl)-4-fluoro-1,9-diazaspiro[5.5]undecan-2-one]	18 nM	–
CCOC(=O)c1nc(O[C@@H]2COC[C@H]2F)cc(N2CCC3(CCCC(=O)N3c3ccc(F)c(F)c3)CC2)n1 (racemic) [Example 111, rac ethyl 4-(1-(3,4-difluorophenyl)-2-oxo-1,9-diazaspiro[5.5]undecane-9-yl)-6-(((3S,4S)-4-fluorotetrahydrofuran-3-yl)oxy)pyrimidine-2-carboxylate]	17 nM	–
C[C@H](Oc1cc(N2CCC3(CCOC(=O)N3c3ccc(F)c(F)c3)CC2)nc(N)n1)C(F)(F)F [Example 113b, (S)-9-(2-amino-6-((1,1,1-trifluoropropan-2-yl)oxy)pyrimidin-4-yl)-1-(3,4-difluorophenyl)-3-oxa-1,9-diazaspiro[5.5]undecan-2-one, or (R)-9-(2-amino-6-((1,1,1-trifluoropropan-2-yl)oxy)pyrimidin-4-yl)-1-(3,4-difluorophenyl)-3-oxa-1,9-diazaspiro[5.5]undecan-2-one]	36 nM	–
CC1(C(Oc2cc(N3CCC4(CCCC(=O)N4c4ccc(F)c(F)c4)CC3)nc(N)n2)C(F)(F)F)COC1 (racemic) [Example 96, rac-9-(2-amino-6-(2,2,2-trifluoro-1-(3-methyloxetan-3-yl)ethoxy)pyrimidin-4-yl)-1-(3,4-difluorophenyl)-1,9-diazaspiro[5.5]undecan-2-one]	3 nM	–
Nc1nc(N2CCC3(CCCC(=O)N3c3ccc(F)c(F)c3)CC2)cc(C(F)(F)F)n1 [Example 76, 9-(2-amino-6-(trifluoromethyl)pyrimidin-4-yl)-1-(3,4-difluorophenyl)-1,9-diazaspiro[5.5]undecan-2-one]	57 nM	–
O=C1CC(F)CC2(CCN(c3cc(OC4CCOCC4)ncn3)CC2)N1c1ccc(F)c(F)c1 (racemic) [Example 118, rac-1-(3,4-difluorophenyl)-4-fluoro-9-(6-((tetrahydro-2H-pyran-4-yl)oxy)pyrimidin-4-yl)-1,9-diazaspiro[5.5]undecan-2-one]	8 nM	–
(S)-9-(2-amino-6-(2,2,2-trifluoro-1-(oxetan-3-yl)ethoxy)pyrimidin-4-yl)-1-(3,4-difluorophenyl)-1,9-diazaspiro[5.5]undecan-2-one or (R)-9-(2-amino-6-(2,2,2-trifluoro-1-(oxetan-3-yl)ethoxy)pyrimidin-4-yl)-1-(3,4-difluorophenyl)-1,9-diazaspiro[5.5]undecan-2-one [Example 89a]	1 nM	–
O=C1CCCC2(CCN(c3nc(C4=CCC(F)(F)CC4)c[nH]c3=O)CC2)N1c1ccc(F)c(F)c1 [Example 18, 9-(6-(4,4-difluorocyclohex-1-en-1-yl)-3-oxo-3,4-dihydropyrazin-2-yl)-1-(3,4-difluorophenyl)-1,9-diazaspiro[5.5]undecane-2-one]	2 nM	–
O=C1CCCC2(CCN(c3cc(-n4cc(F)cn4)nc(N4CCOCC4)n3)CC2)N1c1ccc(F)c(F)c1 [Example 73, 1-(3,4-difluorophenyl)-9-(6-(4-fluoro-1H-pyrazol-1-yl)-2-morpholinopyrimidin-4-yl)-1,9-diazaspiro[5.5]undecan-2-one]	68 nM	–
Nc1nc(O[C@@H]2CCCOC2)cc(N2CCC3(CCCC(=O)N3c3ccc(F)c(F)c3)CC2)n1 [Example 100, (R)-9-(2-amino-6-((tetrahydro-2H-pyran-3-yl)oxy)pyrimidin-4-yl)-1-(3,4-difluorophenyl)-1,9-diazaspiro[5.5]undecan-2-one]	2 nM	–
CC(Oc1cc(N2CCC3(CCCC(=O)N3c3ccc(F)c(F)c3)CC2)ncn1)C(F)(F)F (racemic) [Example 86, rac-1-(3,4-dfluorophenyl)-9-(6-((1,1,1-trifluoropropan-2-yl)oxy)pyrimidin-4-yl)-1,9-diazaspiro[5.5]undecan-2-one]	2 nM	–
Nc1nc(N2CCC3(CCOC(=O)N3c3ccc(F)c(F)c3)CC2)cc(-n2cc(C(F)(F)F)cn2)n1 [Example 115, 9-(2-amino-6-(4-(trifluoromethyl)-1H-pyrazol-1-yl)pyrimidin-4-yl)-1-(3,4-difluorophenyl)-3-oxa-1,9-diazaspiro[5.5]undecan-2-one]	28 nM	–
O=C1CCCC2(CCN(c3cc(OCC(F)(F)F)n[nH]c3=O)CC2)N1c1ccc(F)c(F)c1 [Example 13, 1-(3,4-difluorophenyl)-9-(3-oxo-6-(2,2,2-trifluoroethoxy)-2,3-dihydropyridazin-4-yl)-1,9-diazaspiro[5.5]undecan-2-one]	36 nM	–
O=C1CCCC2(CCN(c3cc(-n4ccc(C(F)(F)F)n4)ncn3)CC2)N1c1ccc(F)c(F)c1 [Example 57, 1-(3,4-difluorophenyl)-9-(6-(3-(trifluoromethyl)-1H-pyrazol-1-yl)pyrimidin-4-yl)-1,9-diazaspiro[5.5]undecan-2-one]	850 nM	–
Nc1nc(OCC(F)(F)C(F)(F)F)cc(N2CCC3(CCCC(=O)N3c3ccc(F)c(F)c3)CC2)n1 [Example 97]	3 nM	–
N#Cc1nc(N2CCC3(CCCC(=O)N3c3ccc(F)c(F)c3)CC2)cc(-n2cccn2)n1 [Example 49, 4-(1-(3,4-difluorophenyl)-2-oxo-1,9-diazaspiro[5.5]undecan-9-yl)-6-(1H-pyrazol-1-yl)pyrimidine-2-carbonitrile]	88 nM	–
